US8829033B2, “N-benzylamide substituted derivatives of 2-(acylamido)acetic acid and 2-(acylamido)propionic acids: potent neurological agents” (The University of North Carolina at Chapel Hill, priority 2009, dated 2014)
Read-outs that look alike come from different tables or passages of the source.

Tests used:
Rats [1] = assay: Partial sciatic nerve ligation model (rats, ip); assay type: in vivo; details: dose 12 (mg), at 1 h, p < 0.05
Mice [2] = details: rotorod, Ref 30, 16, 32; cited from earlier work
Rat [3] = details: Ref 16, 32; cited from earlier work
Mice [4] = details: Ref 30, 16, 32; cited from earlier work
Rat [5] = details: Ref 16, 32; cited from earlier work; remark: listed apart in the source
Rat [6] = assay: Maximal electroshock seizure (MES) test, rat (po); assay type: in vivo
Description: (§2) The maximal electroconvulsive shock (MES) test is regarded as a standard screen for anticonvulsant activity in terms of inhibition of seizure spread in generalized tonic-clonic seizures.
(§3) Groups of at least 8 male albino CF No. 1 mice or male albino Sprague-Dawley rats are treated with 10 mL/kg i.p. or 4 mL/kg p.o. of the test compound solution, respectively. The electrical stimulus in the MES test is 50 mA at 60 Hz for mice and 150 mA at 60 Hz for rats, both delivered for 0.2 sec. Abolition of the hind leg tonic extensor component of the seizure is used as the endpoint.

Mice [7] = assay: Formalin test (mice, ip); assay type: in vivo; details: for Formalin Assay Acute (%) / Formalin Assay Inflam. (%): mice, ip
Description: Compounds of the present invention were active in treating pain in a formalin test carried out in accordance with standard techniques, as described in S. Hunskaar et al., J. Neurosci. Methods 14: 69-76 (1985). Briefly, 0.5% formalin is injected into the mouse hind paw to elicit a bi-phasic licking response, where the first acute phase is thought to correspond to the direct stimulation of peripheral fibers and the second (inflammatory) phase is caused by the release of inflammatory mediators.
Spinal/supraspinal plasticity of nociception is considered as a molecular basis for neuropathic pain particularly during the second (late) phase of the test (Dubuisson & Dennis, 1977; Coderre et al., 1990; Coderre & Melzack, 1992), during which most clinically used drugs against neuropathic pain are active.

Mice [8] = assay: Maximal electroshock seizure (MES) test, mice (ip);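 note: male albino CF No. 1 mice dosed ip, MES stimulus 50 mA at 60 Hz lasting 0.2 s, efficacy endpoint is loss of hind leg tonic extension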
Description: as §2, §3

[9] = Neurological toxicity, rotorod test, mice (ip); assay type: in vivo; details: male, CF No 1, mouse, in vivo
Description: (§1) Tests are conducted in groups of at least 8 mice or rats to determine the intrinsic neurotoxicity (neuromuscular impairment) after administration of the test compound by the route of administration to be used in the pharmacology studies. Neurotoxicity is determined in male CF No 1 mice by the rotarod procedure. Inability of the mouse to maintain its equilibrium in 3 trials during 1 min on this rotating rod (6 rpm) is used as an indication of such impairment. In Sprague-Dawley rats, minimal motor impairment (MMI) is determined by overt evidence of ataxia, abnormal gait, and stance.

[10] = Behavioral toxicity, rat (po); assay type: in vivo; details: Sprague-Dawley, in vivo, po, read-out: Rat (po) Tox, TD50
Description: as §1

Mice [11] = tested on: Mice
Description: as §2, §3

Mice [12] = assay: 6 Hz test, mice (ip); assay type: in vivo
Rats [13] = assay: Hippocampal kindling test, rats (ip); assay type: in vivo; details: rats
Description: The kindling model provides a tool to predict a test compound's activity in complex partial seizures.
Male albino Sprague-Dawley rats (n=8) are kindled to a Stage 5 behavioral seizure. They are treated with an appropriate i.p. dose of the test compound after a 1-week, stimulus-free period. The test compound is evaluated for its effect on kindled motor seizures (seizures scores of 4 and 5), limbic behavior seizures (seizure scores between 1 and 3) and after-discharge duration. After 15 min, each rat is stimulated every 30 min for 3-4 h. Following each stimulation, individual seizure scores and after-discharge duration are recorded. The group mean and standard error of the mean (SEM) are calculated for each parameter.

Mice [14] = assay: Neurological toxicity, rotorod test, mice (ip); assay type: in vivo
Description: as §1

Rat [15] = assay: Behavioral toxicity, rat (po); assay type: in vivo
Description: as §1

[16] = Rattus norvegicus, read-out: Rat (po) MES, ED50
[17] = Table b501, ip, protective index (TD50/ED50)
[18] = Table b501, orally, behavioral toxicity

In the case of `COC[C@@H](NC(C)=O)C(=O)NCc1ccc(OCc2cccc(F)c2)cc1` [(R)-3, (R)-2-Acetamido-N-(4-(3-fluorobenzyloxy)benzyl)-3-methoxypropanamide], the “Partial Sciatic Nerve Ligation Assay: attenuation of mechanical allodynia” value (Rats [1]) is given as 11.2 fold attentaution of mechanical, the “Mice (ip) Tox, TD50” value (Mice [2]) is given as 27 [0.25] mg/kg and the “Rat (po) MES, ED50” value (Rat [3]) is given as 3.9 [2.0] mg/kg. The “Mice (ip) Mes, ED50” value (Mice [4]) was 4.5 [0.5] mg/kg, the “Rat (po) Tox, TD50” value (Rat [5]) was >500 mg/kg and the “Rat (po) PI” value (Rat [6]; PI=TD50/ED50) was >36. The “Formalin Assay Acute (%)” value (Mice [7]; dose 15 (mg)) was 35%, the “Formalin Assay Inflam. (%)” value (Mice [7]; dose 15 (mg)) was 44% and the “Mice (ip) MES, ED50” value (Mice [8]; ip) was 13 [0.25]. For the same compound, the “Mice (ip) PI” value (Mice [8]; ip, PI=TD50/ED50) was ~2 and the TD50 ([9]; read-out: Mice (ip) Tox, TD50) was 26 mg/kg.
With `COC[C@@H](NC(C)=O)C(=O)NCc1ccc(OC(F)(F)F)cc1` [(R)-4] the ED50 (Rat [6]; [16]) was > 30 mg/kg, the “Formalin Assay Acute (%)” value (Mice [7]; dose 4.0 (mg)) was 52% and the “Formalin Assay Inflam. (%)” value (Mice [7]; dose 4.0 (mg)) was 50%. The “Mice (ip) PI” value (Mice [8]; ip, PI=TD50/ED50) was ~9.3 and the TD50 [10] was > 30 mg/kg.
In the case of `COCCCc1ccc(CNC(=O)[C@@H](COC)NC(C)=O)cc1` [(R)-7], the ED50 (Rat [6]; [16]) is reported as 16 mg/kg, the TD50 ([9]; read-out: Mice (ip) Tox, TD50) is reported as 62 mg/kg and the TD50 [10] is reported as > 500 mg/kg.
In the case of `COCc1ccc(CNC(=O)[C@@H](COC)NC(C)=O)cc1` [(R)-8], the ED50 (Rat [6]; [16]) is reported as 45 mg/kg, the TD50 ([9]; read-out: Mice (ip) Tox, TD50) is reported as 180 mg/kg and the TD50 [10] is reported as > 500 mg/kg.
With `COC[C@@H](NC(C)=O)C(=O)NCc1ccc(C2(C(F)(F)F)N=N2)cc1` [(R)-9, (R)-2-Acetamido-3-methoxy-N-(4-(3-(trifluoromethyl)-3H-diazirin-3-yl)benzyl)propanamide] the “Mice (ip) MES, ED50” value (Mice [11]) was 15.05 [0.25] (13.93- 16.39), the ED50 (Rat [6]; read-out: Rat (po) MES, ED50) was > 30 mg/kg and the melting point was 195 °C (dec.). The “Mice (ip) PI” value (Mice [8]; ip, PI=TD50/ED50) was 4.4, the TD50 ([9]; read-out: Mice (ip) Tox, TD50) was 68 mg/kg and the TD50 [10] was > 30 mg/kg.
In the case of `COC[C@@H](NC(C)=O)C(=O)NCc1ccc(OCc2cccc(F)c2)cc1` [(R)-10, (R)-2-Acetamido-N-(4-(3-fluorobenzyloxy)benzyl)-3-methoxypropanamide], the “Rat (po) MES, ED50” value (Rat [6]) is reported as 4.9 [1], the “Rat (po) PI” value (Rat [6]; PI=TD50/ED50) is reported as >57 and the ED50 (Rat [6]; Rattus norvegicus, Table b500, orally, read-out: Rat (po) MES, ED50) is reported as 14 mg/kg. For the same compound, the ED50 (Rat [6]; Rattus norvegicus, Table b502, orally, read-out: Rat (po) MES, ED50) was 14 mg/kg, the ED50 (Rat [6]; Rattus norvegicus, read-out: Rat (po) MES, ED50, Table b501, orally) was 1.4 mg/kg and the “Rat (po) PI” value (Rat [6]; Table b500, protective index (TD50/ED50)) was >36. The “Rat (po) PI” value (Rat [6]; Table b501, protective index (TD50/ED50)) was >36, the “Rat (po) PI” value (Rat [6]; Table b502, protective index (TD50/ED50)) was >36 and the “Formalin Test (mice, ip) Inflammatory (%)” value (Mice [7]; duration of licking as percent of control, late phase, dose 15 mg/kg) was 44 (10) %. For the same compound, the “Formalin Assay Acute (%)” value (Mice [7]; dose 25 (mg)) was 80%, the “Formalin Assay Inflam. (%)” value (Mice [7]; dose 25 (mg)) was 70% and the “Mice (ip) 6 Hz, ED50” value (Mice [12]; Table b500, intraperitoneally) was ~10 [0.25] mg/kg. For the same compound, the “Mice (ip) 6 Hz, ED50” value (Mice [12]; Table b501, intraperitoneally) was ~10 [0.25] mg/kg, the “Mice (ip) 6 Hz, ED50” value (Mice [12]; Table b502, intraperitoneally) was ~10 [0.25] mg/kg and the “Mice (ip) PI” value (Mice [8]; Table b500, ip, protective index (TD50/ED50)) was 2. The “Mice (ip) MES, ED50” value (Mice [8]; Table b501, intraperitoneally) was 13 [0.25] mg/kg, the “Mice (ip) PI” value (Mice [8]; [17]) was 2 and the “Mice (ip) MES, ED50” value (Mice [8]; Table b502, intraperitoneally) was 13 [0.25] mg/kg. For the same compound, the “Mice (ip) PI” value (Mice [8]; Table b502, ip, protective index (TD50/ED50)) was 2, the “Mice (ip) PI” value (Mice [8]; ip, PI=TD50/ED50) was ~3.1 and the “Preliminary Hippocampal Kindling Test (Rats) After discharge duration, Drug” value (Rats [13]; after drug (pre-drug duration in neighbouring column)) was 0 s. The “Preliminary Hippocampal Kindling Test (Rats) Seizure Score, Drug” value (Rats [13]; after drug (pre-drug score in neighbouring column)) was 0, the “Mice (ip) Tox, TD50” value (Mice [14]; Table b500, rotorod test) was 26 [0.5] mg/kg and the “Mice (ip) Tox, TD50” value (Mice [14]; Table b502, rotorod test) was 26 [0.5] mg/kg. The “Mice (ip) Tox, Td50” value (Mice [14]; rotorod test) was 26 [0.5] mg/kg, the “Rat (po) Tox, TD50” value (Rat [15]; Table b500, orally, behavioral toxicity) was >500 [0.5] mg/kg and the “Rat (po) Tox, TD50” value (Rat [15]; [18]) was >500 [0.5] mg/kg. For the same compound, the “Rat (po) Tox, TD50” value (Rat [15]; Table b502, orally, behavioral toxicity) was >500 [0.5] mg/kg and the Rat (po) Tox, TD50 (Rat [15]; po) was > 280 mg/kg.
With `COC[C@@H](NC(C)=O)C(=O)NCc1ccc(Oc2cccc(F)c2)cc1` [(R)-12, (R)—N-4′-((3″-Fluoro)phenoxy)benzyl 2-N-Acetamido-3-methoxypropionamide] the melting point was 125 to 126 °C, the ED50 (Mice [12]; Mus musculus, ip, intraperitoneally) was ~10 mg/kg and the “Mice (ip) MES, ED50” value (Mice [8]; Table b501, intraperitoneally) was 5.5 [0.25] (3.2-6.3) mg/kg. For the same compound, the “Mice (ip) PI” value (Mice [8]; [17]) was 4.2, the TD50 ([9]; rotorod test, read-out: Mice (ip) Tox, Td50) was 23 mg/kg and the “Rat (po) Tox, TD50” value (Rat [15]; [18]) was >10 [0.25-4.0] mg/kg.
In the case of `CC(=O)N[C@@H](C)C(=O)NCc1ccccc1` [(S)-4, reference compound], the “Mice (ip) Tox, TD50” value (Mice [2]) is given as 630 mg/kg and the “Mice (ip) Mes, ED50” value (Mice [4]) is given as 8.0 mg/kg.
